4 compounds from patent publication US20250188041A1, “NEW COMPOUNDS AND TREATMENT OF RENAL CELL CARCINOMA” (Trustlife Global Inc., priority 2022, published 2025) can be followed below.

Holding throughout (assay type): cell-based, Human
Experiment [1] relates to BUB1B. Kind of experiment: Western blot, BUB1B expression in Caki-1 treated with TG-101209 alternatives. The note with it: Caki-1, 5 μM of target drug, 1 day (FIG. 41; method says 2 days). As to the method:
(§1) Cell culture 2: Caki-1 was purchased from CLS Cell Lines Service (Germany). The cells were maintained in McCoy's SA (modified) medium (16600082, Thermo Fisher Scientific, USA) and supplemented with 10% fetal bovine serum (FBS, F7524, Sigma-Aldrich), 1% Penicillin/Streptomycin (P4333, Sigma-Aldrich).
The target drugs developed as alternatives to TG-101209, were dissolved in 0.1% DMSO (41639, Sigma-Aldrich). Caki-1 cells from cell culture 2 were seeded in a 6-well plate at 3×10^5 cells per well. […]
The cells were washed with PBS solution and then lysed with CelLytic M (C2978, Sigma-Aldrich) lysis buffer containing protease inhibitors (11836170001, Roche). The cell lysates were centrifuged at 12 000 rpm for 10 min and supernatants were collected. Protein Assay Dye Reagent (5000006, Bio-Rad) was used for the determination of protein concentration. The absorbance of the proteins was measured spectrophotometrically at 595 nm by a microplate reader (Hidex Sense Beta Plus). Protein electrophoresis was performed using Mini-PROTEAN® TGX™ Precast Gels (4561086, Bio-Rad) and then the separated proteins were transferred to a Trans-Blot Turbo Mini 0.2 um PVDF Transfer Packs membrane (1704158, Bio-Rad) by using Trans-Blot® Turbo™ Transfer System (Bio-Rad). The membrane was blocked with 5% skim milk for 30 min at 4° C. with gentle rocking. After blocking, the membrane was treated with primary antibodies: Anti-BUB1B (HPA008419, Human Protein Atlas, Sweden) and Anti-Beta actin (ab8227, Abcam) as a loading control overnight at 4° C. on a rocking platform. After the treatment of primary antibodies, the membrane was washed three times with TBS-T buffer (A09-7500-100, Medicago). Then, Goat anti-Rabbit IgG-HRP (ab205718, Abcam) was treated as the secondary antibody for 30 min at 4° C. with gentle rocking.
For orientation: Immunoblotting shows a protein as a band on a membrane.

Experiment [2] deals with BUB1B. The experiment is described as follows: Western blot, BUB1B protein level in Caki-1 treated with repurposed drug. The note with it: Caki-1, 6 nM, 24 h, compared to negative control (DMSO). The protocol: (§2) Cell culture 1: Human clear cell renal cell carcinoma (ccRCC) cell line Caki-1 was obtained from the Karolinska Institute of Environmental Medicine, Stockholm, Sweden, derived from a ccRCC patient. The cells were cultured in RPMI 1640 medium with 10% fetal bovine serum (FBS) and 1% penicillin/streptomycin. The cells were cultivated at 37° C. in a humidified incubator with 5% CO2. TG-101209, NVP-TAE684, MK-0752, actinomycin-d, and panobinostat were purchased from Selleckchem ([…], […], […], […], […], Selleckchem, Houston, TX, USA), and withaferin-a was purchased from Sigma (W4394, Sigma-Aldrich, Saint Louis, MO, USA). These drugs were dissolved in DMSO. The cells (from cell culture 1) were seeded in a 96-well plate at 20×10^3 cells per well. After seeding for 24 h, the cells were treated for 24 h with the target drugs: TG-101209 (6 nM), NVP-TAE684 (3 nM), MK-0752 (5 nM), withaferin-a (4 uM), actinomycin-d (0.3 nM), and panobinostat (5 nM). The cells in the negative control group were only treated by DMSO for one day. The cells were washed with phosphate-buffered saline (PBS) and lysed with CelLytic M ([…], Sigma-Aldrich, Saint Louis, MO, USA) lysis buffer containing protease inhibitors. […] The protein bands were detected with ImageQuanattm LAS 500 (29-0050-63, GE) automatic exposure procedure or 6 min exposure.

In another experiment the test system is Caki-1. The experiment is described as follows: CCK-8 cell viability assay of drug-treated Caki-1. As to conditions: 24 h, vs DMSO control. The protocol: Cell culture 1: Human clear cell renal cell carcinoma (ccRCC) cell line Caki-1 was obtained from the Karolinska Institute of Environmental Medicine, Stockholm, Sweden, derived from a ccRCC patient. The cells were cultured in RPMI 1640 medium with 10% fetal bovine serum (FBS) and 1% penicillin/streptomycin. The cells were cultivated at 37° C. in a humidified incubator with 5% CO2. TG-101209, NVP-TAE684, MK-0752, actinomycin-d, and panobinostat were purchased from Selleckchem ([…], […], […], […], […], Selleckchem, Houston, TX, USA), and withaferin-a was purchased from Sigma (W4394, Sigma-Aldrich, Saint Louis, MO, USA). These drugs were dissolved in DMSO. The cells (from cell culture 1) were seeded in a 96-well plate at 20×10^3 cells per well. After seeding for 24 h, the cells were treated for 24 h with the target drugs: TG-101209 (6 nM), NVP-TAE684 (3 nM), MK-0752 (5 nM), withaferin-a (4 uM), actinomycin-d (0.3 nM), and panobinostat (5 nM). The cells in the negative control group were only treated by DMSO for one day. Cell proliferation was detected by Cell Counting Kit-8 (CCK-8) assay. The 10 μl of CCK-8 reagent (1:10) was added to each well of 96-well plate with siRNA transfected cells or drug-treated cells by manufacturer's instruction. The 96-well plate was incubated at 37° C. for 2 hours and then measured absorbance at 450 nm using a microplate reader (Hidex Sense Beta Plus).
(In general: Formazan colour is commonly taken as a measure of viable cells.)

For a further experiment, the system named is Caki-1 cells. The experiment is described as follows: MTT cell viability assay of Caki-1 treated with TG-101209 and its alternatives. As to the method: as §1
The cytotoxic effects of the TG-101209 and its alternatives on the Caki-1 cells were tested by MTT (Thiazolyl Blue Tetrazolium Bromide) method. 1.5×10^4 cells were seeded per well in a 96-well plate in 100 μL growth media. […] After the incubation period, 5 mg/ml MTT (M2128, Sigma-Aldrich) solution in PBS (10 μL) was added to each well. After 1 hour, the MTT solution and all media were removed from the wells. 100 μl of DMSO was added and mixed to dissolve the formazan crystals. Cell viability was analysed by measuring the absorbance of the dissolved formazan at a wavelength of 570 nm with a microplate reader (Hidex Sense Beta Plus).

The next experiment concerns RRM2. Kind of experiment: Western blot, RRM2 protein level in Caki-1 treated with repurposed drugs. As to conditions: 24 h, vs DMSO control. The protocol: as §2, with “inhibitors. The lysates were centrifuged at 12 000 rpm for 5 min, and the supernatant was collected. The proteins were separated by Mini-PROTEAN® TGXTM Precast Gels (BioRad, Berkeley, CA, USA) and transferred to a Trans-Blot Turbo Mini 0.2 um PVDF Transfer Packs membrane (BioRad, Berkeley, CA, USA) by using Trans-Blot® TurboTM Transfer System (Bio-Rad, Berkeley, CA, USA). The antibodies for BUB1B (HPA008419), RRM2 (HPA056994), CEP55 (HPA023430), ASF1B(HPA069385), CCNB2 (HPA008873), and GAPDH (sc47724, Santa Cruz Biotechnology, Inc.) were used for primary immunoblotting. All the antibodies were diluted at 1:10000 concentration. The membranes were incubated in primary antibody solution overnight at 4° C. with gentle rocking.” for “inhibitors.”

Entries after “also recorded” stand apart in the source; their conditions may differ. *1 amine or outer side, *2 acyl side, *3 side chain or, on linkers, in order; H or OH if unused. Where a SMILES comes first, the peptide text is derived from it. Bridges are numbered along the chain shown (N, C = ends). Roman numbers before positions name the chains, in order. [ ]: non-standard residue; d: D form. Actinocin(9to1) = Cc1c2oc3c(C)ccc(C(=O)[*:1])c3nc-2c(C(=O)[*:2])c(N)c1=O; NMeV = CN[C@H](C(=O)O)C(C)C; Sar = CNCC(=O)O

Turning to `Cc1cnc(Nc2ccc(N3CCN(C)CC3)cc2)nc1Nc1cccc(S(=O)(=O)NC(C)(C)C)c1` [TG-101209, reference compound], the “expression levels of BUB1B” value in the experiment on BUB1B [1] was “significantly lower the expression levels of BUB1B”. Also, the “protein level of BUB1B” value in the experiment with BUB1B [2] was “significantly decreased; also recorded: significantly reduced”. Further, in the experiment on Caki-1 (Caki-1, CCK-8, 6 nM), the cell viability result is listed as “significantly reduced”. The “cell viability (MTT assay)” value with Caki-1 cells (Caki-1, 10 μM, 1 day) is reported as “most profound effect on the cell viability”. The same compound gave a half-maximal inhibitory concentration (IC50) in the experiment on Caki-1 cells (FIG. 43, assay not named, presumably Caki-1 cell viability) of about 3 µM. Also, in the experiment with Caki-1 cells (top five target drugs, MTT assay, 10 μM, 1 day, rank 1 = greatest reduction), the “Ranking, Cell viability (%)” value was determined as 5.
For `COc1cc(N2CCC(N3CCN(C)CC3)CC2)ccc1Nc1ncc(Cl)c(Nc2ccccc2S(=O)(=O)C(C)C)n1` [NVP-TAE684], the “protein level of RRM2” value in the experiment on RRM2 (Caki-1, 3 nM) is given as “significantly suppressed”. The cell viability result in the experiment on Caki-1 (Caki-1, CCK-8, 3 nM) was “significantly reduced”.
Regarding `Cc1c2oc3c(C)ccc(C(=O)N[C@@H]4C(=O)N[C@H](C(C)C)C(=O)N5CCC[C@H]5C(=O)N(C)CC(=O)N(C)[C@@H](C(C)C)C(=O)O[C@@H]4C)c3nc-2c(C(=O)N[C@@H]2C(=O)N[C@H](C(C)C)C(=O)N3CCC[C@H]3C(=O)N(C)CC(=O)N(C)[C@@H](C(C)C)C(=O)O[C@@H]2C)c(N)c1=O` [actinomycin-d] (I: T[dV]P[Sar][NMeV] / II: T[dV]P[Sar][NMeV]; ester I:1-I:C, II:1-II:C; linker I:N-II:N via Actinocin(9to1)), the “protein level of RRM2” value in the experiment on RRM2 (Caki-1, 0.3 nM) is recorded as “does not work for inhibiting RRM2”.
In the case of `CC1=C(CO)C(=O)O[C@@H]([C@@H](C)[C@H]2CC[C@H]3[C@@H]4C[C@H]5O[C@]56[C@@H](O)C=CC(=O)[C@]6(C)[C@H]4CC[C@]23C)C1` [withaferin-a], in the experiment on RRM2 (Caki-1, 4 uM), the “protein level of RRM2” value was “significantly suppressed”. For the same compound, the cell viability entry in the experiment with Caki-1 (Caki-1, CCK-8, 4 uM) was “significantly reduced”.

A word on the IC50: it is the concentration that inhibits the measured activity by half.
